This data set is described as follows: gradient 5% acetonitrile 3 min, to 50% in 2 min, to 85% in 15 min, held 3 min, 100 µL/min. Particulars: column: Zorbax Extend-C18 2.1 x 50 mm; eluents: water / acetonitrile, 0.1% formic acid. An outline of the steps:
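The mobile phases were water and acetonitrile, each with 0.1% formic acid, pumped at 100 μL/min through a Zorbax Extend-C18 column (2.1 × 50 mm, 1.8 μm). Pure standards were injected as mixtures of ~100 molecules and detected by a quadrupole time-of-flight mass spectrometer in positive and negative ionization mode. Retention time came from computationally picked adduct peaks, each inspected by hand.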
As for `CSc1cccc(NC(=O)Cc2csc(NC(=O)C3CCC(=O)N3)n2)c1` (stereo not given), the RP-LC retention time amounted to 627 s.

For the compound `CC(=O)Nc1ccc(S(=O)(=O)N2CCC(CN3CCC(C)CC3)CC2)cc1`, the RP-LC retention time is 608 s.

The compound `Cn1cc(C=O)c2nccnc21` gave an RP-LC retention time of 631 s.

For the compound `O=C(CCn1cnnn1)N1CCC2(CC1)CC(CC(=O)N1CCOCC1)CCO2` (stereo not given), the RP-LC retention time was 585 s.

As for `CC1CCN(c2cc(-c3noc(C(=O)NCCC4=CCCCC4)n3)ccn2)CC1`, the RP-LC retention time worked out at 1100 s.

For `Cc1ccc(-c2cc(C(=O)NC3CCCCC3)c(C)[nH]2)cc1C`, the RP-LC retention time came to 1020 s.

`Cc1ccccc1S(=O)(=O)N1CCC(n2cnnc2C2CC2)CC1`: the RP-LC retention time stood at 706 s.

Regarding `CCC(C)NC(=O)c1cn(-c2ccc(-c3nc(C4CC4)no3)cn2)cn1` (stereo not given), the RP-LC retention time stood at 883 s.

Compound `c1cnn(-c2cc(N3CCCC3)ncn2)c1` yielded an RP-LC retention time of 678 s.

As for `O=C(NCC1CCN(S(=O)(=O)C2CC2)CC1)C1(c2ccc(F)cc2)CC1`, the RP-LC retention time came out at 595 s.

`O=C(COc1ccccc1-c1nnc(-c2ccccc2)o1)Nc1ccc2c(c1)OCO2`: the RP-LC retention time stood at 1100 s.

Consider `CCC1CN2C=Nc3oc(C)c(C(=O)Nc4cccc(C(F)(F)F)c4)c3C2=N1` (stereo not given), for which the RP-LC retention time worked out at 719 s.

With `CN(C)C(=O)CN1C(=O)COc2ccc(C(=O)N3CCN(c4ccccc4)CC3)cc21`, the RP-LC retention time is 702 s.

As to `CCCOc1nccnc1NC1CCN(C(=O)c2ccnn2C)CC1`, the RP-LC retention time came out at 706 s.

For the compound `O=c1cc(CN2CCN(c3ncccn3)CC2)nc2sccn12`, the RP-LC retention time is 542 s.

In the case of `CCOC(=O)c1csc(NC(=O)C2CCCN(c3cc(-n4cccn4)ncn3)C2)n1` (stereo not given), the RP-LC retention time came to 796 s.

In turn, `CC1=C(c2cccc(Cl)c2)S(=O)(=O)N=C1N1CCCN(C(=O)c2ccncc2)CC1` came in with an RP-LC retention time of 677 s.

On to `Cn1nc(C(=O)Nc2cccc3nsnc23)ccc1=O`, for which the RP-LC retention time was determined as 723 s.

In turn, `COc1ccc(Cc2nc(-c3cccc(-c4ccn[nH]4)c3)no2)cc1` registered an RP-LC retention time of 911 s.

`CN1C(=O)COc2ccc(-c3csc(NC(=O)c4ccc(Cl)cc4)n3)cc21` showed an RP-LC retention time of 1010 s.

`Cc1nn(C(C)C(=O)Nc2ccc(Cl)cc2)c(=O)c2c(-n3cccc3)n(-c3ccccc3)nc12` (stereo not given) had an RP-LC retention time of 1160 s.

For `CCc1noc(-c2ccnc(-n3cnc(C(=O)Nc4ccc(F)cc4C)c3)c2)n1`, the RP-LC retention time turned out to be 990 s.

`O=C(CCCn1nnc2ccccc2c1=O)Nc1ccc(F)c(Cl)c1`: the RP-LC retention time is 794 s.

`COCCCNC(=O)C1c2ccccc2C(=O)N(Cc2ccccc2)C12CCCC2` (stereo not given): the RP-LC retention time turned out to be 846 s.

Compound `CCOC(=O)c1c(C)[nH]c(C(=O)N2CCC(CC(=O)N3CCCCC3)CC2)c1C` showed an RP-LC retention time of 741 s.

The compound `COc1ccc2c(c1)CCc1c-2n[nH]c1C(=O)N1CCN(c2cc(=O)n(C)c(=O)n2C)CC1` displayed an RP-LC retention time of 659 s.

With `N#Cc1cccc(C(=O)Nc2cnn(-c3ncc(N4CCCCC4)cn3)c2)c1`, the RP-LC retention time was found to be 847 s.

In the case of `CCOc1ccc(-c2n[nH]c3c2C(c2ccc(O)c(OC)c2)NC3=O)cc1` (stereo not given), the RP-LC retention time is 637 s.

For `Cc1csc(-c2cc(S(=O)(=O)NC3CCCCC3)cn2CC(=O)N2CCCC2)n1`, the RP-LC retention time was determined as 927 s.

Compound `Cc1ccc(-c2nnc(-c3ccccc3)o2)cc1S(=O)(=O)N1CCCCCC1` returned an RP-LC retention time of 1200 s.

Consider `CCn1c(=O)c(C(=O)NCc2ccc(F)cc2)nc2cccnc21`, for which the RP-LC retention time turned out to be 790 s.

For the compound `Cc1cc(-c2c(C)sc(C)c2S(=O)(=O)N2CC=C(c3ccccc3)CC2)n[nH]1`, the RP-LC retention time is 1040 s.

Take `Cc1cccc(CN2CC(c3noc(C4CCCN4CC4CC4)n3)C2)c1` (stereo not given): the RP-LC retention time was 526 s.

As for `O=c1cc(-c2cc3c(ccc4ccccc43)oc2=O)c2ccc(O)cc2o1`, the RP-LC retention time came to 875 s.

For the compound `Cc1ccccc1S(=O)(=O)N1CCC2(CC1)CC(C)(O)CCO2` (stereo not given), the RP-LC retention time stood at 778 s.

Consider `COc1ccc(-c2cc(=O)c3c(O)cc(O)cc3o2)cc1OC`, for which the RP-LC retention time was 770 s.

On to `CCc1nc(-c2csc(S(=O)(=O)N3CCCC(C(=O)Nc4ccc(C)cc4Cl)C3)c2)no1` (stereo not given), for which the RP-LC retention time is 1100 s.

The compound `CC(C)n1c(=O)c(NCCCc2ccccc2)nc2ccncc21` registered an RP-LC retention time of 707 s.

`CCc1ccc(NC(=O)N2CCc3[nH]cnc3C2c2ccncc2)cc1` (stereo not given) gave an RP-LC retention time of 581 s.

For the compound `Cc1ccc(NC(=O)Cn2nc(N(C)C)c3ccccc3c2=O)c(Br)c1`, the RP-LC retention time was 1010 s.

Consider `COc1ccc(-c2noc(Cc3nnc(-c4ccc(C)c(F)c4)o3)n2)cc1`, for which the RP-LC retention time came to 1050 s.

For the compound `CCc1ccc(OCc2nc(CCN(C)C(=O)C3CCCC3)no2)cc1`, the RP-LC retention time was 1020 s.

`Cc1ccc(C(=O)N2CC[C@H](CO)[C@H](N(C)C)C2)s1`: the RP-LC retention time was 577 s.

Regarding `CCC1Oc2ccc(S(=O)(=O)N3CCC(C(=O)Nc4ccc5c(c4)OCO5)CC3)cc2NC1=O` (stereo not given), the RP-LC retention time was 809 s.

Consider `Cc1ccc(-c2csc(NC(=O)CCc3nc(CSc4nc5cc(C)ccc5o4)no3)n2)cc1`, for which the RP-LC retention time is 1210 s.

In turn, `CCCC(=O)N1CCc2c([nH]c3ccccc23)C1c1ccc(F)cc1` (stereo not given) returned an RP-LC retention time of 698 s.

With `Cc1nn(-c2ccccc2)c(C)c1S(=O)(=O)N1CCC(C(=O)Nc2cccc(Cl)c2)CC1`, the RP-LC retention time amounted to 1040 s.

For the compound `CC(C)CCNC(=O)C1CCCN(c2ccc(=O)n(-c3cccc(F)c3)n2)C1` (stereo not given), the RP-LC retention time came out at 868 s.

In turn, `COc1cccc(N2CCN(C(=O)Cn3ccc4c(c(C)nn4-c4ccccc4)c3=O)CC2)c1` displayed an RP-LC retention time of 828 s.

Compound `Cc1ccc(CN2CCN(CC(=O)Nc3ccc4c(c3)OCO4)C(=O)C2=O)cc1` returned an RP-LC retention time of 742 s.

Turning to `Cc1noc(C)c1COc1ccccc1CN1CCC2(CCC2O)CC1` (stereo not given), the RP-LC retention time was 621 s.

For the compound `Cc1cccc(-c2noc(Cn3c(=O)n(-c4ccccc4C)c(=O)c4sccc43)n2)c1`, the RP-LC retention time was found to be 1070 s.

As for `CC1=C(C(=O)OCCCc2ccccc2)C(c2cccs2)NC(=O)N1` (stereo not given), the RP-LC retention time is 882 s.

On to `COc1ccc(-c2cn3c(CC(=O)NCc4ccccc4)csc3n2)cc1OC`, for which the RP-LC retention time came out at 693 s.

`CC(C)NC(=O)c1n[nH]c2c1CCCC2` yielded an RP-LC retention time of 662 s.

For the compound `Cc1oc(-c2ccc(NC(=O)c3cccs3)cc2)nc1Cn1cccn1`, the RP-LC retention time turned out to be 836 s.

`CN(C)[C@@H]1CN(C(=O)COc2ccccc2)C[C@H]1CO` registered an RP-LC retention time of 546 s.

`CC1CN(C(=O)CCC(=O)N2CCN(c3ccccn3)CC2)c2ccccc2O1` (stereo not given) gave an RP-LC retention time of 623 s.

Take `Cc1ccc2c(C)nc(NC3=NCN(Cc4ccccc4)CN3)nc2c1`: the RP-LC retention time turned out to be 772 s.

The compound `CC(C)(C)C(=O)NCc1cccnc1-c1ccccc1` showed an RP-LC retention time of 600 s.

Source of the values: the METLIN SMRT retention time set (Domingo-Almenara et al. 2019).
